According to patent US12319684B2 (Sanford Burnham Prebys Medical Discovery Institute, priority 2014, dated 2025):
Read-outs that look alike come from different tables or passages of the source.

Molecular target: T1, human apelin receptor (APJ, AGTRL-1, APLNR) (Homo sapiens, UniProt P35414)
T1 construct: host or cells: Chinese hamster ovary cells
T1 sequence (P35414 1-380): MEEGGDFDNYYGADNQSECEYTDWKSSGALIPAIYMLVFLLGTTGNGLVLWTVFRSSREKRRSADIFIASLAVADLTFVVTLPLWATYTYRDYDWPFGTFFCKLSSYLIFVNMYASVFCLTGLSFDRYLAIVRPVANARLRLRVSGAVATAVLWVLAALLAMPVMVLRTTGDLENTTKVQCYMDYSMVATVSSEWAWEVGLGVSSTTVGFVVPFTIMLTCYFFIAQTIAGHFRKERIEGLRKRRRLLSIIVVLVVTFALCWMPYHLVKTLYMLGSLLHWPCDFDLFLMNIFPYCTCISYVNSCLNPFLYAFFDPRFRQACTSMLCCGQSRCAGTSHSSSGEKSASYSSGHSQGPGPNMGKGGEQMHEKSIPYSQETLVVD
Test: APJ cAMP cell-based assay (forskolin-stimulated CHO cells, enzyme fragment complementation)
Details: for Emax: CHO, 0.5 h, read-out: APJ cAMP % resp (efficacy)
Procedure: The assays disclosed herein were performed using cell lines from DiscoveRx, Inc.
Biological activity was determined in a cell-based assay. This assay detects activation of the receptor by reporting on intracellular cyclic adenosine monophosphate (cAMP) level. Chinese hamster ovary cells engineered to express a stably integrated human apelin receptor (APJ, AGTRL-1, APLNR), were plated into the wells of a microtiter plate. Cells were stimulated with forskolin to increase intracellular cAMP. Immediately following, compounds were added at a range of final concentrations 0.0-100 μM, in DMSO (not to exceed a final DMSO concentration of >1% v/v), and allowed to incubate with the cells for 0.5 h. At the end of the incubation, cells were lysed to stop APJ signaling, and cAMP was quantified using a commercially available assay kit that applies enzyme fragment complementation technology and bioluminescence, in a competitive ELISA format.
Compound efficacy (% resp) is reported as a percentage of the maximal apelin-13 response at 1 nM (control).

[1] = CHO cells expressing human APJ, forskolin-stimulated, 0.5 h incubation, 50% of control (apelin-13, 1 nM) response, read-out: APJ cAMP EC50
[2] = percentage of the maximal apelin-13 response at 1 nM (control)

| EC50 [1] [nM] | Emax [2] [%] | Structure (SMILES) | Emax [%] | EC50 [nM] |
| --- | --- | --- | --- | --- |
| 13600 | 176 | COc1ccccc1-n1c(SCc2cc(=O)n3cc(C)ccc3n2)nnc1-c1ccc(N(C)C)cc1 [Example 6, 2-[5-(4-Dimethylamino-phenyl)-4-(2-methoxy-phenyl)-4H-[1,2,4]triazol-3-ylsulfanylmethyl]-7-methyl-pyrido[1,2-a]pyrimidin-4-one] | – | – |
| 28 | 103 | COc1ccccc1-n1c(SCc2cc(=O)n3cc(C)ccc3n2)nnc1-c1cccs1 [Example 48, 2-[4-(2-Methoxy-phenyl)-5-thiophen-2-yl-4H-[1,2,4]triazol-3-ylsulfanylmethyl]-7-methyl-pyrido[1,2-a]pyrimidin-4-one] | – | – |
| 482 | 87 | COc1ccccc1-n1c(SCc2nc(=O)c3ccc(Cl)cc3[nH]2)nnc1-c1cccs1 [Example 66, 7-Chloro-2-[4-(2-methoxy-phenyl)-5-thiophen-2-yl-4H-[1,2,4]triazol-3-ylsulfanylmethyl]-1H-quinazolin-4-one] | – | – |
| 3890 | 102 | COc1ccccc1-n1c(SCc2coc(-c3ccc(OC(F)(F)F)cc3)n2)nnc1-c1cccs1 [Example 43, 4-(2-Methoxy-phenyl)-3-thiophen-2-yl-5-[2-(4-trifluoromethoxy-phenyl)-oxazol-4-ylmethylsulfanyl]-4H-[1,2,4]triazole] | – | – |
| 8440 | 111 | COc1ccccc1-n1c(SCc2cc(F)cc(F)c2)nnc1-c1cccs1 [Example 77, 3-(3,5-Difluoro-benzylsulfanyl)-4-(2-methoxy-phenyl)-5-thiophen-2-yl-4H-[1,2,4]triazole] | – | – |
| 42 | 121 | COc1ccccc1-n1c(SCc2nc(=O)c3cc(C)ccc3[nH]2)nnc1-c1cccs1 [Example 59, 2-[4-(2-Methoxy-phenyl)-5-thiophen-2-yl-4H-[1,2,4]triazol-3-ylsulfanylmethyl]-6-methyl-1H-quinazolin-4-one] | – | – |
| > 10000 | – | COc1ccccc1-n1c(NCc2csc(-c3ccc(C)cc3)n2)nnc1-c1cccs1 [Example 86, [4-(2-Methoxy-phenyl)-5-thiophen-2-yl-4H-[1,2,4]triazol-3-yl]-(2-p-tolyl-thiazol-4-ylmethyl)-amine] | – | – |
| 1030 | 59 | COc1ccccc1-n1c(SCc2nc3cc(C)ccc3c(=O)[nH]2)nnc1-c1cccs1 [Example 53, 2-(((4-(2-methoxyphenyl)-5-(thiophen-2-yl)-4H-1,2,4-triazol-3-yl)thio)methyl)-7-methylquinazolin-4(3H)-one] | – | – |
| > 10000 | 31 | COc1ccc(-n2c(SCc3cc(=O)n4cc(C)ccc4n3)nnc2-c2cccs2)cn1 [Example 30] | – | – |
| > 10000 | – | Cc1ccc2nc(CSc3nnc(-c4cccs4)n3-c3ccccc3F)cc(=O)n2c1 [Example 24, 2-[4-(2-Fluoro-phenyl)-5-thiophen-2-yl-4H-[1,2,4]triazol-3-ylsulfanylmethyl]-7-methyl-pyrido[1,2-a]pyrimidin-4-one] | – | – |
| 551 | 137 | COc1ccccc1-n1c(SCc2cc(=O)n3cc(C)ccc3n2)nnc1-c1ccc(Br)s1 [Example 8, 2-[5-(5-Bromo-thiophen-2-yl)-4-(2-methoxy-phenyl)-4H-[1,2,4]triazol-3-ylsulfanylmethyl]-7-methyl-pyrido[1,2-a]pyrimidin-4-one] | – | – |
| 9 | 109 | COc1ccccc1-n1c(SCc2nc(=O)c3cc(F)ccc3[nH]2)nnc1-c1cccs1 [Example 55, 6-Fluoro-2-[4-(2-methoxy-phenyl)-5-thiophen-2-yl-4H-[1,2,4]triazol-3-ylsulfanylmethyl]-1H-quinazolin-4-one] | – | – |
| 4.44 | 52 | COc1ccccc1-n1c(SCc2cc(=O)n3cc(C)ccc3n2)nnc1-c1ccc(C)o1 [Example 15, 2-[4-(2-Methoxy-phenyl)-5-(5-methyl-furan-2-yl)-4H-[1,2,4]triazol-3-ylsulfanylmethyl]-7-methyl-pyrido[1,2-a]pyrimidin-4-one] | – | – |
| > 10000 | 52 | Cc1ccc2nc(CSc3nnc(-c4cccs4)n3-c3ccc(OC(F)(F)F)cc3)cc(=O)n2c1 [Example 25, 7-Methyl-2-[5-thiophen-2-yl-4-(4-trifluoromethoxy-phenyl)-4H-[1,2,4]triazol-3-ylsulfanylmethyl]-pyrido[1,2-a]pyrimidin-4-one] | – | – |
| 10200 | 166 | COc1ccccc1-n1c(SCc2cccc(F)c2)nnc1-c1cccs1 [Example 73, 3-(3-Fluoro-benzylsulfanyl)-4-(2-methoxy-phenyl)-5-thiophen-2-yl-4H-[1,2,4]triazole] | – | – |
| 15000 | 80 | COc1ccccc1-n1c(SCc2ccccc2F)nnc1-c1cccs1 [Example 74, 3-(2-Fluoro-benzylsulfanyl)-4-(2-methoxy-phenyl)-5-thiophen-2-yl-4H-[1,2,4]triazole] | – | – |
| 11300 | 159 | COc1ccccc1-n1c(SCc2cccc(C)c2)nnc1-c1cccs1 [Example 76, 4-(2-Methoxy-phenyl)-3-(3-methyl-benzylsulfanyl)-5-thiophen-2-yl-4H-[1,2,4]triazole] | – | – |
| 53.6 | 116 | COc1ccccc1-n1c(SCc2nc(=O)c3cc(Cl)ccc3[nH]2)nnc1-c1cccs1 [Example 62, 6-Chloro-2-[4-(2-methoxy-phenyl)-5-thiophen-2-yl-4H-[1,2,4]triazol-3-ylsulfanylmethyl]-1H-quinazolin-4-one] | – | – |
| 680 | 109 | COc1ccccc1-n1c(OCc2csc(-c3ccccc3)n2)nnc1-c1cccs1 [Example 84] | – | – |
| > 10000 | 31 | COc1ccccc1-n1c(-c2cccs2)cnc1OCc1csc(-c2ccccc2)n1 [Example 80] | – | – |
| 1220 | 99 | COc1ccccc1-n1c(SCc2ccc(Cl)c(Cl)c2)nnc1-c1cccs1 [Example 71, 3-(3,4-Dichloro-benzylsulfanyl)-4-(2-methoxy-phenyl)-5-thiophen-2-yl-4H-[1,2,4]triazole] | – | – |
| 772 | 105 | COc1ccccc1-n1c(SCc2cc(=O)n3cc(C)ccc3n2)nnc1-c1nccs1 [Example 14, 2-[4-(2-Methoxy-phenyl)-5-thiazol-2-yl-4H-[1,2,4]triazol-3-ylsulfanylmethyl]-7-methyl-pyrido[1,2-a]pyrimidin-4-one] | – | – |
| > 10000 | 18 | COc1ccccc1-n1c(SCc2coc(-c3ccc(C(F)(F)F)cc3)n2)nnc1-c1cccs1 [Example 38, 4-(2-Methoxy-phenyl)-3-thiophen-2-yl-5-[2-(4-trifluoromethyl-phenyl)-oxazol-4-ylmethylsulfanyl]-4H-[1,2,4]triazole] | – | – |
| 45 | 52 | COc1ccccc1-n1c(OCc2cc(=O)n3cc(C)ccc3n2)nnc1-c1cccs1 [Example 83, 2-(((4-(2-methoxyphenyl)-5-(thiophen-2-yl)-4H-1,2,4-triazol-3-yl)oxy)methyl)-7-methyl-4H-pyrido[1,2-a]pyrimidin-4-one] | – | – |
| 451 | 125 | COc1ccccc1-n1c(SCc2cc(=O)n3ccc(C)cc3n2)nnc1-c1cccs1 [Example 51, 2-[4-(2-Methoxy-phenyl)-5-thiophen-2-yl-4H-[1,2,4]triazol-3-ylsulfanylmethyl]-8-methyl-pyrido[1,2-a]pyrimidin-4-one] | – | – |
| > 10000 | 120 | COc1ccccc1-n1c(SCc2csc(-c3ccc([N+](=O)[O-])cc3)n2)nnc1-c1cccs1 [Example 34, 4-(2-Methoxy-phenyl)-3-[2-(4-nitro-phenyl)-thiazol-4-ylmethylsulfanyl]-5-thiophen-2-yl-4H-[1,2,4]triazole] | – | – |
| 547 | 134 | COc1ccccc1-n1c(SCc2nc(=O)c3cccc(C)c3[nH]2)nnc1-c1cccs1 [Example 58, 2-[4-(2-Methoxy-phenyl)-5-thiophen-2-yl-4H-[1,2,4]triazol-3-ylsulfanylmethyl]-8-methyl-1H-quinazolin-4-one] | – | – |
| – | – | COc1ccccc1-n1c(SCc2ccncn2)nnc1-c1cccs1 [Example 78, 4-[4-(2-Methoxy-phenyl)-5-thiophen-2-yl-4H-[1,2,4]triazol-3-ylsulfanylmethyl]-pyrimidine] | 50 | > 10000 |

| Structure (SMILES) | EC50 [1] [nM] | Emax [2] [%] | Emax [%] | EC50 [nM] |
| --- | --- | --- | --- | --- |
| COc1ccccc1-n1c(SCc2nc(=O)c3cccc(F)c3[nH]2)nnc1-c1cccs1 [Example 57, 8-Fluoro-2-[4-(2-methoxy-phenyl)-5-thiophen-2-yl-4H-[1,2,4]triazol-3-ylsulfanylmethyl]-1H-quinazolin-4-one] | 140 | – | 106 | – |
| COc1ccc(-n2c(SCc3cc(=O)n4cc(C)ccc4n3)nnc2-c2cccs2)cc1 [Example 20, 2-[4-(4-Methoxy-phenyl)-5-thiophen-2-yl-4H-[1,2,4]triazol-3-ylsulfanylmethyl]-7-methyl-pyrido[1,2-a]pyrimidin-4-one] | 5000 | – | 10 | – |
